# Reference: patent US9938322B2, “β-hairpin peptidomimetics” (priority 2013, dated 2018)
# *1 amine or outer side, *2 acyl side, *3 side chain or, on linkers, in order; H or OH if unused. Where a SMILES comes first, the peptide text is derived from it. Side-chain parts run from the residue outwards. [ ]: non-standard residue; d: D form. The star is where a group is joined. Pro(3S-OH) = O=C(O)[C@H]1NCC[C@@H]1O; Dap(CONH2) = NC(=O)NC[C@H](N)C(=O)O; Cha = N[C@@H](CC1CCCCC1)C(=O)O; Chg = N[C@H](C(=O)O)C1CCCCC1; Tle = CC(C)(C)[C@H](N)C(=O)O; dDab = NCC[C@@H](N)C(=O)O; hSer = N[C@@H](CCO)C(=O)O; Orn = NCCC[C@H](N)C(=O)O; Dab = NCC[C@H](N)C(=O)O; Nva = CCC[C@H](N)C(=O)O; Dap = NC[C@H](N)C(=O)O; X4 = CCCCOc1ccc(N*)cc1; CO = O=C([*:1])[*:2]
# Test system: human red blood cells (hRBC)
# Assay: Hemolysis of human red blood cells
# Assay type: cell-based
# Settings: red cells of human, 1 h, 100
# How it was run: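 Washed fresh human erythrocytes (20% v/v, about 0.9×10^9 cells/ml final) incubated with peptide at 100 μg/ml for 1 h at 37° C with shaking. Supernatant OD540 read; hemolysis expressed relative to 2.5% Triton X-100 (100%) and PBS with 0.001% acetic acid (0%).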
row,Structure (SMILES),Hemolysis at 100 μg/ml [%]
1,CC(C)C[C@@H]1NC(=O)[C@@H]2[C@@H](O)CCN2C(=O)[C@H]2CCCN2C(=O)[C@H](CO)NC(=O)[C@H](CNC(N)=O)NC(=O)[C@H](C(C)(C)C)NC(=O)[C@H](CCN)NC(=O)[C@H](Cc2c[nH]c3ccccc23)NC(=O)[C@H](CCN)NC(=O)[C@@H](CCN)NC(=O)[C@H](CCCN)NC(=O)[C@H](CCN)NC(=O)[C@H](CC2CCCCC2)NC(=O)[C@H](C)NC1=O [compound 60] (cyclo(LA[Cha][Dab][Orn][dDab][Dab]W[Dab][Tle][Dap(CONH2)]S[dP][Pro(3S-OH)])),1
2,CC(C)C[C@@H]1NC(=O)[C@@H]2CCCN2C(=O)[C@H]2CCCN2C(=O)[C@H](CO)NC(=O)[C@H](CCN)NC(=O)[C@H](C(C)(C)C)NC(=O)[C@H](CCN)NC(=O)[C@H](Cc2c[nH]c3ccccc23)NC(=O)[C@H](CCN)NC(=O)[C@@H](CCN)NC(=O)[C@H](CCCN)NC(=O)[C@H](CCN)NC(=O)[C@H](Cc2ccc(O)cc2)NC(=O)[C@H](CC(=O)O)NC1=O [compound 114] (cyclo(LDY[Dab][Orn][dDab][Dab]W[Dab][Tle][Dab]S[dP]P)),0.5
3,CC(C)[C@@H]1NC(=O)[C@H](CCN)NC(=O)[C@H](Cc2c[nH]c3ccccc23)NC(=O)[C@H](CCN)NC(=O)[C@@H](CCN)NC(=O)[C@H](CCCN)NC(=O)[C@H](CCN)NC(=O)[C@H](Cc2ccc(O)cc2)NC(=O)[C@H](CO)NC(=O)[C@H](Cc2c[nH]c3ccccc23)NC(=O)[C@@H]2CCCN2C(=O)[C@H]2CCCN2C(=O)[C@H](CO)NC(=O)[C@H](C)NC1=O [compound 72] (cyclo(WSY[Dab][Orn][dDab][Dab]W[Dab]VAS[dP]P)),0
4,CC(C)C[C@@H]1NC(=O)[C@@H]2CCCN2C(=O)[C@H]2CCCN2C(=O)[C@H](CO)NC(=O)[C@H](C)NC(=O)[C@H](C(C)(C)C)NC(=O)[C@H](CCN)NC(=O)[C@H](Cc2c[nH]c3ccccc23)NC(=O)[C@H](CCN)NC(=O)[C@H](CCN)NC(=O)[C@H](CCCCN)NC(=O)[C@H](CCN)NC(=O)[C@H](Cc2ccc(O)cc2)NC(=O)[C@H](CO)NC1=O [compound 26] (cyclo(LSY[Dab]K[Dab][Dab]W[Dab][Tle]AS[dP]P)),1
5,CC(C)C[C@@H]1NC(=O)[C@@H]2CCCN2C(=O)[C@H]2CCCN2C(=O)[C@H](CO)NC(=O)[C@H](C)NC(=O)[C@H](C(C)(C)C)NC(=O)[C@H](CCN)NC(=O)[C@H](Cc2c[nH]c3ccccc23)NC(=O)[C@H](CCCN)NC(=O)[C@@H](CCN)NC(=O)[C@H](CCCN)NC(=O)[C@H](CCN)NC(=O)[C@H](Cc2ccc(O)cc2)NC(=O)[C@H](CO)NC1=O [compound 99] (cyclo(LSY[Dab][Orn][dDab][Orn]W[Dab][Tle]AS[dP]P)),0
6,CCC[C@@H]1NC(=O)[C@@H]2CCCN2C(=O)[C@H]2CCCN2C(=O)[C@H](CO)NC(=O)[C@H](C)NC(=O)[C@H](C(C)(C)C)NC(=O)[C@H](CCN)NC(=O)[C@H](Cc2c[nH]c3ccccc23)NC(=O)[C@H](CCN)NC(=O)[C@@H](CCN)NC(=O)[C@H](CCCN)NC(=O)[C@H](CCN)NC(=O)[C@H](Cc2ccc(O)cc2)NC(=O)[C@H](C)NC1=O [compound 48] (cyclo([Nva]AY[Dab][Orn][dDab][Dab]W[Dab][Tle]AS[dP]P)),1
7,CC(C)[C@@H]1NC(=O)[C@@H]2CCCN2C(=O)[C@H]2CCCN2C(=O)[C@H](CO)NC(=O)[C@H](C)NC(=O)[C@H](CC2CCCCC2)NC(=O)[C@H](CCN)NC(=O)[C@H](Cc2c[nH]c3ccccc23)NC(=O)[C@H](CCN)NC(=O)[C@@H](CCN)NC(=O)[C@H](CCCN)NC(=O)[C@H](CCN)NC(=O)[C@H](Cc2ccc(O)cc2)NC(=O)[C@H](CO)NC1=O [compound 92] (cyclo(VSY[Dab][Orn][dDab][Dab]W[Dab][Cha]AS[dP]P)),5
8,CC(C)C[C@@H]1NC(=O)[C@@H]2CCCN2C(=O)[C@H]2CCCN2C(=O)[C@H](CO)NC(=O)[C@H](C)NC(=O)[C@H](C(C)(C)C)NC(=O)[C@H](CCN)NC(=O)[C@H](Cc2c[nH]c3ccccc23)NC(=O)[C@H](CCN)NC(=O)[C@@H](CCN)NC(=O)[C@H](CN)NC(=O)[C@H](CCN)NC(=O)[C@H](Cc2ccc(O)cc2)NC(=O)[C@H](CO)NC1=O [compound 95] (cyclo(LSY[Dab][Dap][dDab][Dab]W[Dab][Tle]AS[dP]P)),1
9,COC[C@@H]1NC(=O)[C@H](C(C)(C)C)NC(=O)[C@H](CCN)NC(=O)[C@H](Cc2c[nH]c3ccccc23)NC(=O)[C@H](CCN)NC(=O)[C@@H](CCN)NC(=O)[C@H](CCCN)NC(=O)[C@H](CCN)NC(=O)[C@H](CC2CCCCC2)NC(=O)[C@H](CN)NC(=O)[C@H](Cc2c[nH]c3ccccc23)NC(=O)[C@@H]2CCCN2C(=O)[C@H]2CCCN2C(=O)[C@H](CO)NC1=O [Ex. 6] (cyclo(W[Dap][Cha][Dab][Orn][dDab][Dab]W[Dab][Tle]S(Me)S[dP]P)),3
10,CC(C)C[C@@H]1NC(=O)[C@@H]2CCCN2C(=O)[C@H]2CCCN2C(=O)[C@H](CO)NC(=O)[C@H](C)NC(=O)[C@H](C2CCCCC2)NC(=O)[C@H](CCN)NC(=O)[C@H](Cc2c[nH]c3ccccc23)NC(=O)[C@H](CCN)NC(=O)[C@@H](CCN)NC(=O)[C@H](CCCN)NC(=O)[C@H](CCN)NC(=O)[C@H](Cc2ccc(O)cc2)NC(=O)[C@H](CO)NC1=O [compound 29] (cyclo(LSY[Dab][Orn][dDab][Dab]W[Dab][Chg]AS[dP]P)),6
11,CC[C@H](C)[C@@H]1NC(=O)[C@@H]2CCCN2C(=O)[C@H]2CCCN2C(=O)[C@H](CO)NC(=O)[C@H](CO)NC(=O)[C@H](C(C)(C)C)NC(=O)[C@H](CCN)NC(=O)[C@H](Cc2c[nH]c3ccccc23)NC(=O)[C@H](CCN)NC(=O)[C@@H](CCN)NC(=O)[C@H](CCCN)NC(=O)[C@H](CCN)NC(=O)[C@H](CC2CCCCC2)NC(=O)[C@H](C)NC1=O [compound 151] (cyclo(IA[Cha][Dab][Orn][dDab][Dab]W[Dab][Tle]SS[dP]P)),7
12,CC[C@H](C)[C@@H]1NC(=O)[C@@H]2CCCN2C(=O)[C@H]2CCCN2C(=O)[C@H](CO)NC(=O)[C@H](C)NC(=O)[C@H](C(C)(C)C)NC(=O)[C@H](CCN)NC(=O)[C@H](Cc2c[nH]c3ccccc23)NC(=O)[C@H](CCN)NC(=O)[C@@H](CCN)NC(=O)[C@H](CCCN)NC(=O)[C@H](CCN)NC(=O)[C@H](Cc2ccc(O)cc2)NC(=O)[C@H](CN)NC1=O [compound 146] (cyclo(I[Dap]Y[Dab][Orn][dDab][Dab]W[Dab][Tle]AS[dP]P)),0
13,CC(C)C[C@@H]1NC(=O)[C@@H]2CCCN2C(=O)[C@H]2CCCN2C(=O)[C@H](CO)NC(=O)[C@H](C)NC(=O)[C@H](C(C)(C)C)NC(=O)[C@H](CCO)NC(=O)[C@H](Cc2c[nH]c3ccccc23)NC(=O)[C@H](CCN)NC(=O)[C@@H](CCN)NC(=O)[C@H](CCCN)NC(=O)[C@H](CCN)NC(=O)[C@H](Cc2ccc(O)cc2)NC(=O)[C@H](CO)NC1=O [compound 37] (cyclo(LSY[Dab][Orn][dDab][Dab]W[hSer][Tle]AS[dP]P)),1
14,CC[C@H](C)[C@@H]1NC(=O)[C@H](CCN)NC(=O)[C@H](Cc2c[nH]c3ccccc23)NC(=O)[C@H](CCN)NC(=O)[C@@H](CCN)NC(=O)[C@H](CCCN)NC(=O)[C@H](CCN)NC(=O)[C@H](Cc2ccc(O)cc2)NC(=O)[C@H](CO)NC(=O)[C@H]([C@@H](C)CC)NC(=O)[C@@H]2CCCN2C(=O)[C@H]2CCCN2C(=O)[C@H](CO)NC(=O)[C@H](C)NC1=O [compound 81] (cyclo(ISY[Dab][Orn][dDab][Dab]W[Dab]IAS[dP]P)),1
15,CC(C)C[C@@H]1NC(=O)[C@@H]2CCCN2C(=O)[C@H]2CCCN2C(=O)[C@H](CO)NC(=O)[C@H](C)NC(=O)[C@H](Cc2c[nH]c3ccccc23)NC(=O)[C@H](CCN)NC(=O)[C@H](Cc2c[nH]c3ccccc23)NC(=O)[C@H](CCN)NC(=O)[C@@H](CCN)NC(=O)[C@H](CCCCN)NC(=O)[C@H](CCN)NC(=O)[C@H](Cc2ccc(O)cc2)NC(=O)[C@H](CO)NC1=O [compound 108] (cyclo(LSY[Dab]K[dDab][Dab]W[Dab]WAS[dP]P)),1
16,CC(C)C[C@@H]1NC(=O)[C@@H]2CCCN2C(=O)[C@H]2CCCN2C(=O)[C@H](CO)NC(=O)[C@H](C)NC(=O)[C@H](C(C)(C)C)NC(=O)[C@H](CCN)NC(=O)[C@H](Cc2c[nH]c3ccccc23)NC(=O)[C@H](CCN)NC(=O)[C@@H](CCN)NC(=O)[C@H](CCCN)NC(=O)[C@H](CCN)NC(=O)[C@H](Cc2ccc(O)cc2)NC(=O)[C@H](C)NC1=O [compound 43] (cyclo(LAY[Dab][Orn][dDab][Dab]W[Dab][Tle]AS[dP]P)),1
17,CC[C@H](C)[C@@H]1NC(=O)[C@@H]2CCCN2C(=O)[C@H]2CCCN2C(=O)[C@H](CO)NC(=O)[C@H](C)NC(=O)[C@H](C(C)(C)C)NC(=O)[C@H](CCN)NC(=O)[C@H](Cc2c[nH]c3ccccc23)NC(=O)[C@H](CCN)NC(=O)[C@H](CCN)NC(=O)[C@H](CCCN)NC(=O)[C@H](CCN)NC(=O)[C@H](CC2CCCCC2)NC(=O)[C@H](CO)NC1=O [compound 142] (cyclo(IS[Cha][Dab][Orn][Dab][Dab]W[Dab][Tle]AS[dP]P)),1
18,C[C@@H]1NC(=O)[C@H](C(C)(C)C)NC(=O)[C@H](CCN)NC(=O)[C@H](Cc2c[nH]c3ccccc23)NC(=O)[C@H](CCN)NC(=O)[C@@H](CCN)NC(=O)[C@H](CCCN)NC(=O)[C@H](CCN)NC(=O)[C@H](Cc2c[nH]c3ccccc23)NC(=O)[C@H](CN)NC(=O)[C@H](Cc2c[nH]c3ccccc23)NC(=O)[C@@H]2CCCN2C(=O)[C@H]2CCCN2C(=O)[C@H](CO)NC1=O [compound 79] (cyclo(W[Dap]W[Dab][Orn][dDab][Dab]W[Dab][Tle]AS[dP]P)),1
19,CCCCOc1ccc(NC(=O)NC[C@@H]2NC(=O)[C@H](CC(C)C)NC(=O)[C@@H]3CCCN3C(=O)[C@H]3CCCN3C(=O)[C@H](CO)NC(=O)[C@H](C)NC(=O)[C@H](C(C)(C)C)NC(=O)[C@H](CCN)NC(=O)[C@H](Cc3c[nH]c4ccccc34)NC(=O)[C@H](CCN)NC(=O)[C@@H](CCN)NC(=O)[C@H](CCCN)NC(=O)[C@H](CCN)NC(=O)[C@H](CC3CCCCC3)NC2=O)cc1 [compound 41] (cyclo(L[Dap]([CO-X4])[Cha][Dab][Orn][dDab][Dab]W[Dab][Tle]AS[dP]P)),7
